Test results published in patent US7303881B2, “Antigen delivery compositions and methods of use” (priority 2004, dated 2007).

Assays:
[1] = tested on: DC 2.4 cells; experiment: Expression of CD80 on DC 2.4 cells, cationic lipid head group and chain length; type: cell-based
Excerpt: Both hydrophilic head and the lipophilic tail of the lipids have significant effect on this ability. […] The effect of the hydrocarbon tail region of the lipids on the DC cell stimulation also was systematically investigated (FIG. 8).

[2] = tested on: EL4 cells pulsed with E7 peptide; experiment: Chromium release CTL assay after LPD/E7 vaccination; type: in vivo, C57BL/6 mice; settings: 20 μg E7 peptide, IV and SC, days 0 and 5
Procedure: For comparison, mice were injected with 20 μg E7 peptide in PBS or encapsulated in SL liposomes. Five days after the final vaccination, splenocytes were collected, and used as effector cells in a chromium release assay. Consistent with previous reports, antigen containing SL liposomes induced significant levels of CTL activity (61% specific lysis) following SC injection only.
Cytolytic lymphocyte activity was measured using standard ^51Cr-release assays. Splenocytes were collected and cultured in RPMI supplemented with 10% FBS, 50 U/ml penicillin/streptomycin, 2 mM L-glutamine, 1 mM sodium pyruvate, 2 mM nonessential amino acids, 40 U/ml IL2, and 200 ng/ml MHC class I restricted E7 peptide for 4 days. Effector cells were plated into 96-well plates at various effector-to-target (E:T) cell ratios. Targets used were either EL4 cells pulsed with E7 peptide or non-pulsed EL4 cells. Targets were labeled with 200 μCi ^51Cr (NEN Life Sciences, Boston Mass.) for 18 h at 37° C. Before mixing with effectors, the targets were washed two times with medium, and resuspended at 2×10^5 cells/ml. […] Specific lysis was calculated using the following equation: % specific lysis=(experimental release−spontaneous release)/(maximum release−spontaneous release)×100. […]

[3] = tested on: TC-1 cells; experiment: Metastatic tumor model (i.p. TC-1 cells) after vaccination, survival and TC-1 rechallenge; type: in vivo, mice; settings: 10 μg E7 peptide in PBS days 0 and 5; 1×10^6 TC-1 cells day 10
[4] = tested on: tumor; experiment: In vivo tumor therapy with LPD/E7 and formulations of LPD components; design: species or system mice; settings: 20 days after treatment; tumor injected 6 days before onset of treatment
Excerpt: FIG. 9. Tumor growth kinetics on mice treated with LPD/E7 and other different formulations.
It is speculated that by condensing DNA, protamine helped to bring DNA inside the liposomes. E7 peptide was thought to bind to DNA via electrostatic interaction (Dileo et al., 2003). […] On the other hand, E7might only be loosely bound in the LD/E7 particles.

In the case of `CCCCCCCC/C=C\CCCCCCCC(=O)OC[C@@H](COP(=O)(OCC)OCC[N+](C)(C)C)OC(=O)CCCCCCC/C=C\CCCCCCCC` (stereo partly drawn) [DOEPC-18:1, 1,2-dioleoyl-sn-glycero-3-ethylphosphocholine], the “Stimulation of CD 80 expression” value [1] is reported as “more potent”.
In the case of `CCCCCCCCCCCCOS(=O)(=O)[O-].[Na+]` [SDS, sodium dodecyl sulfate], the “Stimulation of CD 80 expression” value [1] is reported as “could not activate”.
“E7 peptide: MHC class I restricted peptide from the HPV 16 E7 protein (aa 49 to 57, RAHYNIVTF), given in PBS” was tested, and the “CTL activity” value [2] was “no CTL induction”, the “mice surviving beyond 20 days after TC-1 cell injection” value [3] was 20% and the “Tumor growth after treatment” value [4] was “kept growing rapidly”.
For `CCCCCCCCCCCCCC(=O)OCC(COP(=O)(OCC)OCC[N+](C)(C)C)OC(=O)CCCCCCCCCCCCC` (stereo not drawn) [DMEPC-14:0, 1,2-dimyristoyl-sn-glycero-3-ethylphosphocholine], the “Stimulation of CD 80 expression” value [1] was “more potent”.
`CCCCCCCCCCCCCCCC(=O)OCC(C[N+](C)(C)C)OC(=O)CCCCCCCCCCCCCCC` (stereo not drawn) [DPTAP-16:0, 1,2-palmitoyl-3-trimethylammonium propane] was tested, and the “Stimulation of CD 80 expression” value [1] was “much lower expression of CD80”.
In the case of `CCCCCCCCCCCCCCCCCC(=O)OCC(C[N+](C)(C)C)OC(=O)CCCCCCCCCCCCCCCCC` (stereo not drawn) [DSTAP-18:0, 1,2-distearoyl-3-trimethylammonium propane], the “Stimulation of CD 80 expression” value [1] is reported as “much lower expression of CD80”.
`CCCCCCCCCCCC(=O)OC[C@H](COP(=O)(OCC)OCC[N+](C)(C)C)OC(=O)CCCCCCCCCCC` (stereo partly drawn) [DLEPC-12:0, 1,2-dilauroyl-sn-glycero-3-ethylphosphocholine] was tested, and the “Stimulation of CD 80 expression” value [1] was “more potent”.
